Data set [1] in a line: Stability of active halogen species in the presence of residual H2O2. It is filed as physicochemical. Here is the method: The stability of nitrogen-bound active halogen species in the presence of residual H2O2 was investigated. Free and total chlorine concentrations were measured by standard DPD methodology and the total H2O2 concentration by acidic […] titration. The concentration of MCDMH is the concentration of the total active halogen less the concentration of free active halogen. The concentration of H2O2 is the total oxidant concentration less the MCDMH concentration. […] The indicated reaction is shown in Equation 6.
The effect of the addition of a molar equivalent of 5,5-dimethylhydantoin (DMH) to NaOCl solutions prior to combination with hydrogen peroxide was investigated. The concentration of MCDMH is the concentration of the total active halogen less the concentration of free active halogen. The concentration of H2O2 is the total oxidant concentration less the MCDMH concentration.

The next data set concerns Pseudomonas aeruginosa. The data set can be described thus: Bactericidal efficacy of sulfite and hydrogen peroxide solutions in the absence of pulp. It is filed as cell-based. To be noted: peroxide 0 ppm, pH 7.0, 3 h at 37° C. The source says: (§1) The expression “1 g cfu/mL” denotes the common (decadic) logarithm of the number of colony-forming units per milliliter or, in connection with the term “reduction”, the common logarithm of the quotient of the number of colony-forming units per milliliter before treatment and the number of colony-forming units after treatment. Unless otherwise indicated all concentrations in percent or ppm are expressed on a weight basis.
The bactericidal efficacy of solutions containing sulfite and hydrogen peroxide was further investigated in the absence of pulp. Efficacy was measured against Pseudomonas aeruginosa grown in nutrient in the presence of 83 and 830 ppm sulfite. The sulfite-containing P. aeruginosa inoculum was then diluted 1:99 with Butterfield's buffer at pH 7.0. The sulfite concentrations in Table 5 below are the those in the final dilution. The dilutions were then contacted with 50 ppm hydrogen peroxide for 3 h at 37° C.

Data set [2] deals with microbial population of sulfite bleached pulp slurry (total aerobic counts). In words: Biocidal performance in sulfite bleached pulp slurry, total aerobic counts (tryptone soy agar plating). The format is cell-based. To be noted: for 3 h Reduction / 24 h Reduction: peroxide 0 ppm; for 3 h Reduction: 3 h contact; for 24 h Reduction: 24 h contact.
Source text: as §1
Synergistic biocidal performance upon co-application of sulfite with hydrogen peroxide at elevated pH was investigated. The sulfite and peroxide concentrations indicated in Table 3 below were added to an aqueous solution made from: (a) deionized water, (b) NaHCO3 to achieve a carbonate buffer concentration of 200 ppm (as CaCO3 total alkalinity), (c) sulfite bleached pulp slurry to achieve a final consistency of 0.05%, carrying an associated minimal concentration of residual sulfite of 6 ppm, and (d) NaOH to achieve a pH of 9.0.
The microbial population was that provided by preparing the pulp slurry 24-48 h prior to testing and storing at room temperature, thus allowing microbial growth to a high test level. […] Populations reported are total aerobic counts using tryptone soy agar plating.
SI=(level of A)/(efficacious level of A)+(level of B)/(efficacious level of B) (3)
Synergy upon co-application of sulfite with hydrogen peroxide at higher concentrations of sulfite and hydrogen peroxide was investigated. The conditions were the same as in Example 3.

Data set [3] in a line: Residual sulfite and hydrogen peroxide content after mixing (co-stability). It is filed as physicochemical. The procedure:
Aqueous solutions containing sodium sulfite and hydrogen peroxide were mixed at 21° C. to obtain a solution having a sulfite content (as SO3^2−) of 40 ppm, a hydrogen peroxide content of 20.0 ppm and a pH of 6.7. The temperature of the solution was maintained at 21° C. and the residual sulfite and peroxide content was determined at 15, 30 and 60 minutes after mixing. The procedure consisted of adding a known amount of 1-chloro-5,5-dimethylhydantoin (MCDMH) to the samples in excess of the estimated residual sulfite content. The remaining MCDMH concentration was then measured by standard DPD total halogen methodologies. As sulfite rapidly neutralizes MCDMH at all pHs the sulfite concentration is the concentration of MCDMH added less the concentration of MCDMH measured, see Equation 1 below.
[Sulfite]=[MCDMHadded]−[MCDMHmeasured] (1)
The H2O2 concentration was determined by recording the concentration of H2O2 measured using acidic thiosulfate titration with KI indicator (HACH HYP-1 hydrogen peroxide test kit—Hach Co., Loveland, Colo.). Since this titration is run at acidic pH, this method yields the concentration of H2O2 in excess of the sulfite concentration contained in the sample. As the sulfite concentration is known from the MCMDH analysis and Equation 1, the H2O2 concentration can be calculated using the following Equation 2:
[H2O2]=[H2O2 measured]+[Sulfitecalculated] (2)
The estimated error in the methodology is ±1 ppm
The procedure of Example 1 was repeated with the difference that the pH of the mixed solution was 9.0 and the residual concentrations were determined 5, 15, 30, 60, 120 and 1080 minutes after mixing.

Setting [4] is: 2.1 ppm H2O2 + 1.0 ppm NaOCl (as Cl2), 1 min.
Where [5] appears, read: 2.1 ppm H2O2 + 1.0 ppm DMH stabilized NaOCl, 1 min.
The mark [6] stands for this setting: 2.1 ppm H2O2 + 1.0 ppm DMH stabilized NaOCl, 5 min.
Setting [7] is: 2.1 ppm H2O2 + 1.0 ppm DMH stabilized NaOCl, 15 min.
Setting [8] is: 2.1 ppm H2O2 + 1.0 ppm DMH stabilized NaOCl, 60 min.
The mark [9] stands for this setting: Table 3 Test No. 2: sulfite 32 ppm, pH 9.0.
Setting [10] is: Table 3 Test No. 3: sulfite 128 ppm, pH 9.0.
The mark [11] stands for this setting: Table 4 Test No. 2: sulfite 128 ppm.
[12] abbreviates: Table 4 Test No. 3: sulfite 512 ppm.
Where [13] appears, read: pH 9.0, start 40 ppm sulfite + 20.0 ppm H2O2, 5 min.
The mark [14] stands for this setting: pH 9.0, start 40 ppm sulfite + 20.0 ppm H2O2, 15 min.
[15] abbreviates: pH 9.0, start 40 ppm sulfite + 20.0 ppm H2O2, 30 min.
Setting [16] is: pH 9.0, start 40 ppm sulfite + 20.0 ppm H2O2, 60 min.
[17] abbreviates: pH 9.0, start 40 ppm sulfite + 20.0 ppm H2O2, 120 min.
[18] abbreviates: pH 9.0, start 40 ppm sulfite + 20.0 ppm H2O2, 1080 min.

Turning to `[Na+].[O-]Cl` [NaOCl], in data set [1] (setting [4]), the “Free active halogen DPD (as Cl2)” value was 0.0 ppm, the “Indicated Species NaOCl (as Cl2)” value is 0.0 ppm and the “Total active halogen DPD (as Cl2)” value is 0.0 ppm. In data set [1] (2.1 ppm H2O2 + 1.0 ppm NaOCl (as Cl2), 5 min), the “Indicated Species NaOCl (as Cl2)” value amounted to 0.0 ppm. Moreover, the “Indicated Species NaOCl (as Cl2)” value in data set [1] (2.1 ppm H2O2 + 1.0 ppm NaOCl (as Cl2), 15 min) stood at 0.0 ppm. In addition, the “free chlorine after combination” value in data set [1] (combination of 2.1 ppm H2O2 with 1 ppm NaOCl (as Cl2), immediate) is reported as “no detectable free chlorine”.

In the case of `CC1(C)C(=O)NC(=O)N1Cl` [DMH stabilized NaOCl, 1-chloro-5,5-dimethylhydantoin], the “Free active halogen DPD (as Cl2)” value in data set [1] (setting [5]), in data set [1] (setting [6]), in data set [1] (setting [7]) and in data set [1] (setting [8]) was 0.0 ppm in each case. Further, the “Indicated Species DMH stabilized NaOCl (as Cl2)” value in data set [1] (setting [5]) was 0.9 ppm; in data set [1] (setting [6]) it was 1.0 ppm; in data set [1] (setting [7]), 0.9 ppm; in data set [1] (setting [8]) it was 0.9 ppm. Besides, the “Total active halogen DPD (as Cl2)” value in data set [1] (setting [5]) turned out to be 0.9 ppm; in data set [1] (setting [6]) it was 1.0 ppm; in data set [1] (setting [7]) it was 0.9 ppm; in data set [1] (setting [8]), 0.9 ppm.

As to `O=S([O-])[O-].[Na+].[Na+]` [Sulfite, sodium sulfite], the “3 h Reduction” value is 0.1 lg cfu/mL with Pseudomonas aeruginosa (Table 5 Test No. 2: sulfite 8.3 ppm); 0.0 lg cfu/mL with Pseudomonas aeruginosa (Table 5 Test No. 3: sulfite 0.83 ppm); −0.40 lg cfu/mL in data set [2] (setting [9]); −0.50 lg cfu/mL in data set [2] (setting [10]); 0.32 lg cfu/mL in data set [2] (setting [11]); 0.08 lg cfu/mL in data set [2] (setting [12]). Besides, the “effect on bacterial populations” value in data set [2] (Example 3, sulfite alone at 32-128 ppm) was “no significant effect”. Besides, the “amount alone required to achieve 1 g cfu/mL reduction of 4.2” value in data set [2] (Example 4, single agent) was above 512 ppm. Besides, the “effect on the microbial populations” value in data set [2] (Example 4, sulfite at 128-512 ppm) is recorded as “no significant effect”. The “24 h Reduction” value in data set [2] (setting [9]) was 0.11 lg cfu/mL; in data set [2] (setting [10]) it was −0.45 lg cfu/mL; in data set [2] (setting [11]), 0.11 lg cfu/mL; in data set [2] (setting [12]), −0.45 lg cfu/mL. The “Sulfite (as H2O2)” value in data set [3] (pH 6.7, 21° C., start 40 ppm sulfite + 20.0 ppm H2O2, 15 min) was determined as 3.1 ppm; in data set [3] (pH 6.7, 21° C., start 40 ppm sulfite + 20.0 ppm H2O2, 30 min) it was 2.3 ppm; in data set [3] (pH 6.7, 21° C., start 40 ppm sulfite + 20.0 ppm H2O2, 60 min), 0.0 ppm; in data set [3] (setting [13]), 7.9 ppm; in data set [3] (setting [14]), 6.8 ppm; in data set [3] (setting [15]), 6.7 ppm. The entries for the “Sulfite (as H2O2)” value in data set [3] (setting [16]), in data set [3] (setting [17]) and in data set [3] (setting [18]) were 6.2 ppm, 5.2 ppm and 0.1 ppm, respectively. The “Sulfite (as SO3^2−)” value stood at 7.2 ppm in data set [3] (pH 6.7, 21° C., start 40 ppm sulfite + 20.0 ppm H2O2, 15 min after mixing); 5.4 ppm in data set [3] (pH 6.7, 21° C., start 40 ppm sulfite + 20.0 ppm H2O2, 30 min after mixing); 0.0 ppm in data set [3] (pH 6.7, 21° C., start 40 ppm sulfite + 20.0 ppm H2O2, 60 min after mixing); 18.7 ppm in data set [3] (setting [13]); 16.0 ppm in data set [3] (setting [14]); 15.7 ppm in data set [3] (setting [15]). In addition, the “Sulfite (as SO3^2−)” value in data set [3] (setting [16]) amounted to 14.6 ppm; in data set [3] (setting [17]) it was 12.3 ppm; in data set [3] (setting [18]) it was 0.3 ppm.

The values above are taken from patent US20100092574A1, “SYNERGISTIC PEROXIDE BASED BIOCIDAL COMPOSITIONS” (priority 2008, published 2010).
